Results: patent US12215106B2, “Pharmaceutical compounds and therapeutic methods” (RUTGERS, THE STATE UNIVERSITY OF NEW JERSEY, priority 2018, dated 2025)
Counter-ions that a name gives are not always drawn. Like-named read-outs stand apart in the source and are kept apart here. Marks after values point to notes of the source that are not given here.

Test: Plasma pharmacokinetics and brain distribution after single IV, IP and oral administration
Assay type: in vivo
Conditions: male, C57BL/6, mouse
Procedure: (§1) The objective of this study was to investigate the plasma pharmacokinetics and brain distribution of Compound (14 in male C57BL/6 mice following a single intravenous, intraperitoneal and oral administration. A group of sixty-three male mice were divided into three groups (Group 1: 2 mg/kg/IV; Group 2: 10 mg/kg/IP and Group 3: 10 mg/kg/PO) with each group comprising of twenty-one mice.
Animals in Group 1 were administered intravenously with Compound 15 solution formulation in 5% NMP, 5% Solutol HS-15, 30% PEG-400 and 60% Captisol (20% w/v) at 2 mg/kg dose. […] Considering mortality intravenous dose was reduced to 2 mg/kg.
Animals in Group 2 and 3 were administered with Compound 15 solution formulation in 5% NMP, 5% Solutol HS-15, 30% PEG-400 and 60% Captisol (20% w/v) at a dose of 10 mg/kg by intraperitoneal and oral route respectively.
(§2) Blood samples (approximately 60 μL) were collected under light isoflurane anesthesia from retro orbital plexus from a set of three mice at 0.08, 0.35, 1, 3, 6, 12 and 24 hr. Plasma samples were separated by centrifugation of whole blood and stored below −70±10° C. until bioanalysis. Immediately after collection of blood, brain samples were collected from set of three mice at each time point. Brain samples were homogenized using ice-cold phosphate buffer saline (pH-7.4) in a ratio of 2 (buffer):1(brain); and homogenates were stored below −70±10° C. until analysis. Total homogenate volume was three times the brain weight. All samples were processed for analysis by protein precipitation using acetonitrile and analyzed with fit-for-purpose LC/MS/MS method (LLOQ2.00 ng/mL for plasma and 3.00 ng/g for brain). Pharmacokinetic parameters were calculated using the non-compartmental analysis tool of Phoenix WinNonlin® (Version 7.0). Pharmacokinetic parameters of Compound 15 are summarized below.
as §1, with “Compound 16” for “Compound (14”, “1: 10” for “1: 2”
Animals in Group 1 were administered intravenously with Compound 16 solution formulation in 5% NMP, 5% Solutol HS-15 and 90% normal saline at 10 mg/kg dose.
Animals in Group 2 and 3 were administered with Compound 16 solution formulation in 5% NMP, 5% Solutol HS-15 and 90% normal saline at a dose of 10 mg/kg by intraperitoneal and oral route respectively.
as §2, with “(LLOQ—1.00” for “(LLOQ2.00”, “16” for “15”
as §1, with “17” for “(14”, “mice. […]” for “mice.”

[1] = brain, ip, 10 mg/kg, IP 10 mg/kg, read-out: Brain-to-plasma ratio
[2] = brain, po, 10 mg/kg, PO 10 mg/kg, read-out: Brain-to-plasma ratio
[3] = brain/plasma, iv, 10 mg/kg, IV 10 mg/kg, read-out: Brain-to-plasma ratio
[4] = in vivo, ip, 10 mg/kg, Brain concentration, individual animal
[5] = in vivo, ip, 10 mg/kg, Mean brain conc.
[6] = in vivo, ip, 10 mg/kg, Mean plasma conc.
[7] = in vivo, ip, 10 mg/kg, Plasma concentration, individual animal
[8] = in vivo, iv, 10 mg/kg, Brain concentration, individual animal
[9] = in vivo, iv, 10 mg/kg, Mean brain conc.
[10] = in vivo, iv, 10 mg/kg, Mean plasma conc.
[11] = in vivo, iv, 10 mg/kg, Plasma concentration, individual animal
[12] = in vivo, po, 10 mg/kg, Brain concentration, individual animal
[13] = in vivo, po, 10 mg/kg, Mean brain conc.
[14] = in vivo, po, 10 mg/kg, Mean plasma conc.
[15] = in vivo, po, 10 mg/kg, Plasma concentration, individual animal

## Cc1nc2ccccn2c1-c1csc(Nc2ccc3c(c2)OC(F)(F)O3)n1 [Compound 16, N-(2,2-difluorobenzo[d][1,3]dioxol-5-yl)-4-(2-methylimidazo[1,2-a]pyridin-3-yl)thiazol-2-amine hydrochloride]
Brain and plasma, iv, 10 mg/kg, IV 10 mg/kg, read-out: Brain-to-plasma ratio
  Kp at 3 h: 1.6
[1]
  Kp at 0.08 h: 0.78
  Kp at 0.35 h: 1.6
  Kp at 1 h: 2.01
  Kp at 3 h: 4.34
brain, ip, 10 mg/kg, IP 10 mg/kg, read-out: brain-to-plasma ratio, range over time
  Kp: 0.78 to 4.34
brain, iv, 10 mg/kg, IV 10 mg/kg, read-out: brain-to-plasma ratio, range over time
  Kp: 0.96 to 2.78
[2]
  Kp at 0.08 h: 1.07
  Kp at 0.35 h: 1.83
  Kp at 1 h: 1.67
  Kp at 3 h: 1.73
brain, po, 10 mg/kg, PO 10 mg/kg, 6 hr, read-out: Brain-to-plasma ratio
  Kp at 6 h: 1.81
brain, po, 10 mg/kg, PO 10 mg/kg, read-out: brain-to-plasma ratio, range over time
  Kp: 1.07 to 1.81
brain, po, 10 mg/kg, summary data, read-out: Brain to plasma ratio following a single oral dose
  Kp: 1.81
[3]
  Kp at 0.08 h: 1.05
  Kp at 0.35 h: 0.96
  Kp at 1 h: 2.78
In vivo, ip, 10 mg/kg
  Brain concentrations quantifiable up to: up to 3 hr
  Plasma concentrations quantifiable up to: up to 3 hr
In vivo, ip, 10 mg/kg, 6 h
  Brain concentration, individual animal: 0.00 ng/g
  Plasma concentration, individual animal: 0.00 ng/mL
In vivo, ip, 10 mg/kg, 12 h
  Brain concentration, individual animal: 0.00 ng/g
  Plasma concentration, individual animal: 0.00 ng/mL
In vivo, ip, 10 mg/kg, 24 h
  Brain concentration, individual animal: 0.00 ng/g
  Plasma concentration, individual animal: 0.00 ng/mL
[4]
  concentration at 6 h: 0 ng/g
  concentration at 12 h: 0 ng/g
  concentration at 24 h: 0 ng/g
[5]
  concentration at 0.08 h: 558 ng/g
  concentration at 0.35 h: 680 ng/g
  concentration at 1 h: 159 ng/g
  concentration at 3 h: 6.21 ng/g
  concentration at 6 h: 0 ng/g
  concentration at 12 h: 0 ng/g
  concentration at 24 h: 0 ng/g
[6]
  concentration at 0.08 h: 713 ng/mL
  concentration at 0.35 h: 426 ng/mL
  concentration at 1 h: 79.1 ng/mL
  concentration at 3 h: 1.43 ng/mL
  concentration at 6 h: 0 ng/mL
  concentration at 12 h: 0 ng/mL
  concentration at 24 h: 0 ng/mL
[7]
  concentration at 0.08 h: 688 ng/mL
  concentration at 0.35 h: 391 ng/mL
  concentration at 1 h: 62 ng/mL
  concentration at 6 h: 0 ng/mL
  concentration at 12 h: 0 ng/mL
  concentration at 24 h: 0 ng/mL
In vivo, iv, 10 mg/kg
  Brain concentrations quantifiable up to: up to 6 hr
  Vss, fold more than normal volume of total body water (0.7 L/kg): 6.6 fold
In vivo, iv, 10 mg/kg, 6 hr
  Plasma concentration, individual animal: 0.00 ng/mL
In vivo, iv, 10 mg/kg, 12 hr
  Brain concentration, individual animal: 0.00 ng/g
  Plasma concentration, individual animal: 0.00 ng/mL
In vivo, iv, 10 mg/kg, 24 hr
  Brain concentration, individual animal: 0.00 ng/g
  Plasma concentration, individual animal: 0.00 ng/mL
[8]
  concentration at 12 hr: 0 ng/g
  concentration at 24 hr: 0 ng/g
[9]
  concentration at 0.08 h: 1660 ng/g
  concentration at 0.35 h: 514 ng/g
  concentration at 1 h: 225 ng/g
  concentration at 3 h: 9.01 ng/g
  concentration at 6 hr: 5.13 ng/g
  concentration at 12 hr: 0 ng/g
  concentration at 24 hr: 0 ng/g
[10]
  concentration at 0.08 h: 1580 ng/mL
  concentration at 0.35 h: 535 ng/mL
  concentration at 1 h: 80.7 ng/mL
  concentration at 3 h: 5.64 ng/mL
  concentration at 6 hr: 0 ng/mL
  concentration at 12 hr: 0 ng/mL
  concentration at 24 hr: 0 ng/mL
[11]
  concentration at 0.08 hr: 2190 ng/mL
  concentration at 0.35 hr: 417 ng/mL
  concentration at 1 hr: 60.9 ng/mL
  concentration at 6 hr: 0 ng/mL
  concentration at 12 hr: 0 ng/mL
  concentration at 24 hr: 0 ng/mL
In vivo, po, 10 mg/kg
  Brain concentrations quantifiable up to: up to 12 hr
  Plasma concentrations quantifiable up to: up to 6 hr
In vivo, po, 10 mg/kg, 0.08 h
  Brain concentration, individual animal: 115.35 ng/g
In vivo, po, 10 mg/kg, 3 h
  Mean plasma conc.: 3.35^f ng/mL
In vivo, po, 10 mg/kg, 12 h
  Plasma concentration, individual animal: 0.00 ng/mL
In vivo, po, 10 mg/kg, 24 h
  Plasma concentration, individual animal: 0.00 ng/mL
[12]
  concentration at 0.08 h: 221 ng/g
  concentration at 24 h: 0 ng/g
[13]
  concentration at 0.08 h: 187 ng/g
  concentration at 0.35 h: 254 ng/g
  concentration at 1 h: 48.9 ng/g
  concentration at 3 h: 5.78 ng/g
  concentration at 6 h: 4.52 ng/g
  concentration at 12 h: 3.9 ng/g
  concentration at 24 h: 0 ng/g
[14]
  concentration at 0.08 h: 175 ng/mL
  concentration at 0.35 h: 138 ng/mL
  concentration at 1 h: 29.3 ng/mL
  concentration at 3 h: 3.35 ng/mL
  concentration at 6 h: 2.5 ng/mL
  concentration at 12 h: 0 ng/mL
  concentration at 24 h: 0 ng/mL
[15]
  concentration at 12 h: 0 ng/mL
  concentration at 24 h: 0 ng/mL
plasma, po, 10 mg/kg, PO 10 mg/kg, AUClast considered, read-out: Oral bioavailability, % F
  bioavailability: 20%
plasma, po, 10 mg/kg, summary data, read-out: Oral bioavailability
  bioavailability: 20%
plasma, IP 10 mg/kg
  Tmax: 4.8 min
plasma, IV 10 mg/kg, read-out: CL, plasma clearance
  clearance: 230 mL/min/kg
plasma, IV 10 mg/kg, read-out: T1/2, terminal elimination half-life (converted)
  half-life: 25.8 min
plasma, PO 10 mg/kg
  Tmax: 4.8 min
